The results in this text go back to PMC6366420, “Design and synthesis of 4-piperazinyl quinoline derived urea/thioureas for anti-breast cancer activity by a hybrid pharmacophore approach” (Journal of Enzyme Inhibition and Medicinal Chemistry, 2019).

Read-outs that look alike come from different tables or passages of the source.

In one data set the test system is MDA-MB231. In words: SRB antiproliferative assay, MDA-MB231. Type of data set: cell-based, human. As to conditions: SRB, 48 h incubation, MDA-MB231 triple-negative breast cancer cells, read-out: GI50 MDA-MB231. On the procedure: (§1) The human breast cancer cell lines MDA-MB468, MDA-MB231 and MCF-7 were purchased from ATCC and maintained in RPMI 1640 medium supplemented with 10% fetal bovine serum (Hyclone, Logan UT) and 2 mM L-glutamine. MCF10A and 184B5 immortalised breast cells were purchased from ATCC and maintained in mammary epithelial basal medium supplemented with an MEGM mammary epithelial singlequot kit (Cambrex). Cells were grown at 37 °C with 5% CO2, 95% air under the humidified conditions. Cell line authentication was carried out by Genetica DNA Laboratories (Burlington, NC) using a short tandem repeat profiling method (March 2015; July 2015; September 2016).
(§2) Cell cytotoxic effects were determined by a SRB-based protocol[2]^,[25].
(§3) The newly synthesised 4-piperazinylquinoline compounds (5–30) were evaluated for their antiproliferative effects using three breast cancer cell lines, for which the compounds were diluted to achieve seven different concentrations ranging from […]. Followed by 48 h incubation with the compound, cells were treated with sulforhodamine B (SRB) to measure their growth/viability (% of the untreated control) by spectrophotometer. The total cellular macromolecules levels known to accurately reflect by UV reading of SRB staining. […] The reference compounds CQ and cisplatin were included for the comparison.
Background: The SRB assay estimates cell density from bound dye.

The test system of the next data set is MDA-MB468. Put plainly: SRB antiproliferative assay, MDA-MB468. As to conditions: SRB, 48 h incubation, MDA-MB468 breast cancer cells, read-out: GI50 MDA-MB468. It counts as cell-based, human. On the procedure: as §1, §2, §3
In a further data set the test system is MCF7. Put plainly: SRB antiproliferative assay, MCF7. Type of data set: cell-based, human. As to conditions: Homo sapiens; SRB, 48 h incubation, MCF7 breast cancer cells; read-out: GI50 MCF7. On the procedure: as §1, §2, §3
The next data set deals with 184B5. Put plainly: SRB antiproliferative assay, 184B5 non-cancer breast cells. Type of data set: cell-based, human. The note with it: Homo sapiens; SRB, 48 h incubation, 184B5 non-cancer immortalised breast cells; read-out: GI50 184B5. On the procedure:
as §1, §2, §3
(§4) We further assessed their antiproliferative effects on two non-cancer immortalised cell lines (184B5 and MCF10A). […] The antiproliferative effects of compound 23 on cancer cells are thus 7-fold (MDA-MB468 vs MCF10A) to 11-fold (MDA-MB231 vs 184B5) higher than matching non-cancer breast cells, which may indicate that compound 23 could potentially be safer than other compounds. Therefore, we examined it further to gain insights into its molecular mechanism of action.

The next data set has as its system MCF10A. In words: SRB antiproliferative assay, MCF10A non-cancer breast cells. It counts as cell-based, human. As to conditions: Homo sapiens, MCF-10A; SRB, 48 h incubation, MCF10A non-cancer immortalised breast cells; read-out: GI50 MCF10A. On the procedure:
as §1, §2, §3, §4

Another data set deals with MCF7 breast cancer cells. Put plainly: Plasma membrane integrity staining (EtBr, AO, CellMask) of MCF7 cells. Type of data set: cell-based, human. On the procedure: (§5) Lysosomal and AO staining were carried out as described previously. Mitochondrial staining with MitoTracker was carried out as described previously. Briefly, cells were plated on a poly-D-lysine pre-coated 1.8-cm sterile glass coverslip that had been placed in a well of a 6-well clustered dish. Cells were then incubated with 50 nM MitoTracker Red (ThermoFisher) for 30 min in a cell culture incubator. Plasma membrane staining was carried out with lipid-specific CellMask (Molecular probes, Life Technologies), according to the manufacturer’s instruction. For actin staining, cells fixed with 4% formaldehyde were incubated with phalloidin conjugated with Fitc (green) for 30 min. For nuclear staining, cells were incubated with 5 µM of DRAQ5 (blue) for 5 min.
However, it is currently unclear how lipid molecules are found throughout the entire cytoplasm. […] In addition, cells treated with compound 23 are often enlarged and flattened, and contained multi-nuclei. In addition, many small vacuoles are found in the cytoplasm of these cells (Figure 4(a–c)). All of these phenomena are likely leading to eventual cancer cell demise in the presence of compound 23.
Figure 4. […] (a) MCF7 cell morphology changes in the presence of compound 23. MCF7 cells were sham treated or treated with compound 23 for 48 h, followed by staining with either EtBr. […]

The test system of data set [1] is breast cancer and non-cancer breast cell lines. In words: SRB antiproliferative comparison of breast cancer and non-cancer breast cell lines. It counts as cell-based, human. On the procedure: as §1, §2, §3, §4
The next data set has as its system MCF7 cells. In words: Mitochondrial (MitoTracker) and lysosomal (LysoTracker) staining of MCF7 cells. Type of data set: cell-based, human. On the procedure:
as §5
It should be noted that these abnormalities could occur if the membranes of these organelles are compromised. Thus, the molecular target of compound 23 is likely a common element found in the membranes of cytoplasm, mitochondria and lysosomes, but not in the nuclear membrane as it is not compromised in the presence of compound 23 (Figures 4–6).
Figure 5. Mitochondrial membrane may be compromised in the presence of compound 23. […] (b) Mitochondria are aggregated and disorganized in the presence of compound 23. MCF7 mitochondria and nuclei were stained with MitoTracker and DRAQ5, respectively, as descried in Materials and methods.
Figure 6. […]

In the case of `S=C(NCCN1CCOCC1)N1CCN(c2ccnc3cc(Cl)ccc23)CC1` [Compound 23, 4-(7-Chloro-quinolin-4-yl)-piperazine-1-carbothioic acid (2-morpholin-4-yl-ethyl)-amide], the melting point – broadly, the temperature, or range, at which the solid turns liquid – was in the range of 114 to 115 °C. Besides, the GI50 (commonly the concentration at which growth is held to half of that of the control) in the data set with MDA-MB231 (Homo sapiens, MDA-MB-231, 48 h) was 5.3 µM. Besides, in the data set with MDA-MB231, the GI50 turned out to be 3 ± 0.1 µM. The GI50 with MDA-MB468 (Homo sapiens, MDA-MB-468, 48 h) turned out to be 4.7 µM. Besides, the GI50 in the data set with MDA-MB468 worked out at 4.6 ± 0.6 µM. Further, the concentration for 50% growth inhibition (GI50) in the data set on MCF7 stood at 4.5 ± 0.1 µM. The GI50 in the data set with 184B5 was 34.4 ± 0.6 µM. The GI50 in the data set with MCF10A came out at 32.3 ± 0.8 µM. The “cells showing compromised plasma membrane phenotypes” value in the data set with MCF7 breast cancer cells (MCF7, of 500 cells examined, 24-h post treatment) came to 42.4 ± 4.8%. In addition, the “ethidium bromide uptake / plasma membrane integrity (in words)” value with MCF7 breast cancer cells (MCF7 cells, treated 48 h, vs Sham control) is given as “readily uptake ethidium bromide”. Besides, the “antiproliferative effect on cancer cells higher than matching non-cancer breast cells” value in data set [1] (MDA-MB231 vs 184B5) was found to be 11 fold. In addition, the “antiproliferative effect on cancer cells higher than matching non-cancer breast cells” value in [1] (MDA-MB468 vs MCF10A) turned out to be 7 fold. Further, the “higher activity than the reference compounds cisplatin and CQ” value in data set [1] (breast cancer cell lines, GI50 comparison) was 4-8 fold. Further, the “antigrowth/cell-killing activity higher on cancer than non-cancer cells” value in data set [1] (overall range, cancer vs non-cancer breast cells) is 7-11 fold. For the same molecule, in data set [1] (three breast cancer lines vs 184B5 and MCF10A), the “antigrowth effect against cancer versus non-cancer cells (in words)” value is “much stronger activities against cancer than non-cancer cells”. For the same molecule, in the data set with MCF7 cells, the “mitochondrial and lysosomal volumes (in words)” value was “substantial increases in mitochondrial and lysosomal volumes”.
